Source: patent US20250136558A1, “PYRAZINE COMPOUNDS AS IRREVERSIBLE INHIBITORS OF FLT3” (BIOMEA FUSION, INC., priority 2021, published 2025)

Key:
Type in all cases: cell-based
K-562 = test: Proliferation inhibition (CellTiter-Glo) in K-562 cells; details: Homo sapiens, K562, 96 h, K-562 CML cells, no FLT3 mutations, IC50 (4 days)
Excerpt: (§1) The Proliferation Inhibitory Effect was Investigated in Human AML Cell Lines MOLM-13 (AddexBio: C0003003) [REF: Pubmed: 9305600] and MV-4-11 (ATCC: CRL-9591) [REF PMID: 3496132], and CML cell line […] (ATCC: CRL-3343) [REF PMID: 163658]. Molm-13 is heterozygous for FLT3-ITD mutation, while MV4-11 is homozygous for FLT3-ITD [PMID: 12529668]. […] Cells were maintained in RPMI-1640 medium (ThermoFisher catalog no. 61870036) supplemented with 10% of Heat Inactivated FBS (ThermoFisher catalog no.A31605) and 1% Pen-Strep (Thermofisher catalog no. 10378016) and cultured at 37° C. in a humidified incubator with 5% CO2. Cell lines were […], and the cells were maintained in a range 70%-80% confluency.
(§2) ATP is present in all metabolically active cells and is considered as a marker for cell viability and proliferation. Metabolic cell activity was determined using the CellTiter-Glo kit (Promega catalog no. G7572), an ATP monitoring system based on the production of luminescence by the reaction of ATP with added UltraGlo® recombinant luciferase (Kawano et al., 2016, PLOS One, 8; 11(7):e0158888), according to the supplier's experimental recommendations. The assay was based on a 96 well plate format.
(§3) Test compounds were dissolved at 10 mM in DMSO (Sigma catalog no. D8418; purity 299.9%) and stored at −20° C. Eight concentrations of test compound were assessed in duplicate in an individual test occasion in parallel in the selected cell lines. Gilteratinib and FF-10101 were used as reference compounds and tested in duplicate at eight concentrations. 100% of proliferation is represented by the untreated cells (0.2% DMSO).
(§4) On the day of the experiment (TO), cells were quantified with the cell viability analyser NucleoCounter (Chemometec NC-200) and diluted with fresh medium to obtain the cell density of about 10,000 cells per 200 μL medium. 200 μL of cell suspension were added into wells in the 96 well plate.
(§5) After 2 hours from seeding cells, compounds were added using a D300e compound dispenser (Life Sciences Tecan D300) at desired concentrations with shaking between each compound dispensed. Cell plates containing 200 μL/well suspension were incubated at 37° C. in a humidified incubator with […].
(§6) […] Contents were mixed for 5 min on an orbital shaker to induce cell lysis, and then incubated at room temperature for an additional 10 min in the dark to stabilize the luminescent signal. Luminescence was read by using a GloMax GM300 plate reader (Promega) using the luminescence for 96 well plate standard protocol.
(§7) Results were analysed by GraphPad (Prism) and IC50 values were calculated by non-linear regression using four parameter-logistic equation.

MOLM-13 = test: Proliferation inhibition (CellTiter-Glo) in MOLM-13 cells; details: Homo sapiens, 96 h, MOLM-13 AML cells, heterozygous FLT3-ITD, IC50 (4 days)
Excerpt: as §1, §2, §3, §4, §5, §6, §7

MV-4-11 = test: Proliferation inhibition (CellTiter-Glo) in MV-4-11 cells; details: Homo sapiens, MV4-11, 96 h, MV-4-11 AML cells, homozygous FLT3-ITD, IC50 (4 days)
Excerpt: as §1, §2, §3, §4, §5, §6, §7

SMILES | IC50 (K-562) [nM] | IC50 (MOLM-13) [nM] | IC50 (MV-4-11) [nM]
C=CC(=O)NCCNc1cc(Nc2nc(NC3CCOCC3)c(CC)nc2C(N)=O)ccn1 [Compound 20, 3-((2-((2-Acrylamidoethyl)amino)pyridin-4-yl)amino)-6-ethyl-5-((tetrahydro-2H-pyran-4-yl)amino)pyrazine-2-carboxamide] | > 500 | 100 to 500 | 10 to 100
C#CC(=O)NCCNc1cc(Nc2nc(NC3CCOCC3)c(CC)nc2C(N)=O)ccn1 [Compound 21, 6-Ethyl-3-((2-((2-propiolamidoethyl)amino)pyridin-4-yl)amino)-5-((tetrahydro-2H-pyran-4-yl)amino)pyrazine-2-carboxamide] | 100 to 500 | 10 to 100 | 10 to 100
CC#CC(=O)NCCNc1cc(Nc2nc(NC3CCOCC3)c(CC)nc2C(N)=O)ccn1 [Compound 22, 3-((2-((2-(But-2-ynamido)ethyl)amino)pyridin-4-yl)amino)-6-ethyl-5-((tetrahydro-2H-pyran-4-yl)amino)pyrazine-2-carboxamide] | > 500 | 10 to 100 | 10 to 100
C=CS(=O)(=O)NCCNc1cc(Nc2nc(NC3CCOCC3)c(CC)nc2C(N)=O)ccn1 [Compound 23, 6-Ethyl-5-((tetrahydro-2H-pyran-4-yl)amino)-3-((2-((2-(vinylsulfonamido)ethyl)amino)pyridin-4-yl)amino)pyrazine-2-carboxamide] | 100 to 500 | 10 to 100 | 10 to 100
C=CC(=O)NCCCNc1cc(Nc2nc(NC3CCOCC3)c(CC)nc2C(N)=O)ccn1 [Compound 24, 3-((2-((3-Acrylamidopropyl)amino)pyridin-4-yl)amino)-6-ethyl-5-((tetrahydro-2H-pyran-4-yl)amino)pyrazine-2-carboxamide] | > 500 | 10 to 100 | 10 to 100
C#CC(=O)NCCCNc1cc(Nc2nc(NC3CCOCC3)c(CC)nc2C(N)=O)ccn1 [Compound 25, 6-Ethyl-3-((2-((3-propiolamidopropyl)amino)pyridin-4-yl)amino)-5-((tetrahydro-2H-pyran-4-yl)amino)pyrazine-2-carboxamide] | 100 to 500 | 10 to 100 | 1 to 10
CC#CC(=O)NCCCNc1cc(Nc2nc(NC3CCOCC3)c(CC)nc2C(N)=O)ccn1 [Compound 26, 3-((2-((3-(But-2-ynamido)propyl)amino)pyridin-4-yl)amino)-6-ethyl-5-((tetrahydro-2H-pyran-4-yl)amino)pyrazine-2-carboxamide] | > 500 | 100 to 500 | 10 to 100
C=CS(=O)(=O)NCCCNc1cc(Nc2nc(NC3CCOCC3)c(CC)nc2C(N)=O)ccn1 [Compound 27, 6-Ethyl-5-((tetrahydro-2H-pyran-4-yl)amino)-3-((2-((3-(vinylsulfonamido)propyl)amino)pyridin-4-yl)amino)pyrazine-2-carboxamide] | > 500 | 10 to 100 | 10 to 100
C=CC(=O)NCCCC(=O)NCCc1cc(Nc2nc(NC3CCOCC3)c(CC)nc2C(N)=O)cc(OC)c1 [Compound 28, 3-((3-(2-(4-Acrylamidobutanamido)ethyl)-5-methoxyphenyl)amino)-6-ethyl-5-((tetrahydro-2H-pyran-4-yl)amino)pyrazine-2-carboxamide] | > 500 | 100 to 500 | 100 to 500

Now from value to molecule:

IC50 (K-562) [nM] | IC50 (MOLM-13) [nM] | IC50 (MV-4-11) [nM] | SMILES
> 500 | 10 to 100 | 10 to 100 | C=CC(=O)NCCC(=O)NCCc1cc(Nc2nc(NC3CCOCC3)c(CC)nc2C(N)=O)cc(OC)c1 [Compound 29, 3-((3-(2-(3-Acrylamidopropanamido)ethyl)-5-methoxyphenyl)amino)-6-ethyl-5-((tetrahydro-2H-pyran-4-yl)amino)pyrazine-2-carboxamide]
> 500 | 100 to 500 | 1 to 10 | C=CC(=O)N(C)CCCC(=O)NCCc1cc(Nc2nc(NC3CCOCC3)c(CC)nc2C(N)=O)cc(OC)c1 [Compound 30, 6-Ethyl-3-((3-methoxy-5-(2-(4-(N-methylacrylamido)butanamido)ethyl)phenyl)amino)-5-((tetrahydro-2H-pyran-4-yl)amino)pyrazine-2-carboxamide]
> 500 | 1 to 10 | < 1 | C#CC(=O)NCCC(=O)NCCc1cc(Nc2nc(NC3CCOCC3)c(CC)nc2C(N)=O)cc(OC)c1 [Compound 31, 6-Ethyl-3-((3-methoxy-5-(2-(3-propiolamidopropanamido)ethyl)phenyl)amino)-5-((tetrahydro-2H-pyran-4-yl)amino)pyrazine-2-carboxamide]
> 500 | 1 to 10 | < 1 | C#CC(=O)N(C)CCCC(=O)NCCc1cc(Nc2nc(NC3CCOCC3)c(CC)nc2C(N)=O)cc(OC)c1 [Compound 32, 6-ethyl-3-[3-methoxy-5-[2-[4-[methyl(prop-2-ynoyl)amino]butanoylamino]ethyl]anilino]-5-(tetrahydropyran-4-ylamino)pyrazine-2-carboxamide]
> 500 | 10 to 100 | 10 to 100 | CC#CC(=O)N(C)CCCC(=O)NCCc1cc(Nc2nc(NC3CCOCC3)c(CC)nc2C(N)=O)cc(OC)c1 [Compound 33, 3-[3-[2-[4-[but-2-ynoyl(methyl)amino]butanoylamino]ethyl]-5-methoxy-anilino]-6-ethyl-5-(tetrahydropyran-4-ylamino)pyrazine-2-carboxamide]
> 500 | 10 to 100 | 1 to 10 | C=CC(=O)N(C)CCC(=O)NCCc1cc(Nc2nc(NC3CCOCC3)c(CC)nc2C(N)=O)cc(OC)c1 [Compound 34, 6-Ethyl-3-((3-methoxy-5-(2-(3-(N-methylacrylamido)propanamido)ethyl)phenyl)amino)-5-((tetrahydro-2H-pyran-4-yl)amino)pyrazine-2-carboxamide]
> 500 | 10 to 100 | 10 to 100 | CC#CC(=O)N(C)CCC(=O)NCCc1cc(Nc2nc(NC3CCOCC3)c(CC)nc2C(N)=O)cc(OC)c1 [Compound 35, 3-[3-[2-[3-[but-2-ynoyl(methyl)amino]propanoylamino]ethyl]-5-methoxy-anilino]-6-ethyl-5-(tetrahydropyran-4-ylamino)pyrazine-2-carboxamide]
> 500 | 1 to 10 | < 1 | C=CC(=O)N(C)[C@@H](C)C(=O)NCCCOc1cccc(Nc2nc(NC3CCOCC3)c(CC)nc2C(N)=O)c1 [Compound 36, 6-ethyl-3-[3-[3-[[(2S)-2-[methyl(prop-2-enoyl)amino]propanoyl]amino]propoxy]anilino]-5-(tetrahydropyran-4-ylamino)pyrazine-2-carboxamide]
> 500 | < 1 | < 1 | CCc1nc(C(N)=O)c(Nc2cccc(OCCCNC(=O)[C@H](C)N(C)C(=O)/C=C/CN(C)C)c2)nc1NC1CCOCC1 [Compound 37, 3-[3-[3-[[(2S)-2-[[(E)-4-(dimethylamino)but-2-enoyl]-methyl-amino]propanoyl]amino]propoxy]anilino]-6-ethyl-5-(tetrahydropyran-4-ylamino)pyrazine-2-carboxamide]
> 500 | 10 to 100 | 1 to 10 | C=CC(=O)N(C)[C@@H](C)C(=O)NCCOc1cccc(Nc2nc(NC3CCOCC3)c(CC)nc2C(N)=O)c1 [Compound 38, 6-ethyl-3-[3-[2-[[(2S)-2-[methyl(prop-2-enoyl)amino]propanoyl]amino]ethoxy]anilino]-5-(tetrahydropyran-4-ylamino)pyrazine-2-carboxamide]
> 500 | 1 to 10 | < 1 | CCc1nc(C(N)=O)c(Nc2cccc(OCCNC(=O)[C@H](C)N(C)C(=O)/C=C/CN(C)C)c2)nc1NC1CCOCC1 [Compound 39, 3-[3-[2-[[(2S)-2-[[(E)-4-(dimethylamino)but-2-enoyl]-methyl-amino]propanoyl]amino]ethoxy]anilino]-6-ethyl-5-(tetrahydropyran-4-ylamino)pyrazine-2-carboxamide]
